Data published in patent US4443459A, “α-Tocopheryl ester of 5-substituted picolinic acid and hypotensive composition containing it” (Banyu Pharmaceutical Co., Ltd., priority 1981, dated 1984).
Like-named read-outs stand apart in the source and are kept apart here.

Tests used:
in vivo = conditions: mouse, mice
Protocol: (§1) ddY-Strain female mice (body weight about 20 g), five per group, were used and each of the test compounds was orally or intraperitoneally administered, and two days after the administration, the number of dead mice was counted. From it, the acute toxicity LD50 of each of the compounds was determined by the Behrens-Kraerber method.

ddY-Strain female mice = assay: in vivo; conditions: mouse, 4000 mg/kg
Protocol: as §1

[1] = tested on: Spontaneous hypertensive rats; assay: Hypotensive action in spontaneous hypertensive rats, oral (tail artery pressure, plethysmography; Table 1); format: in vivo, rat (spontaneous hypertensive, male)
Text: (§2) dl-α-tocopheryl 5-butylpicolinate and dl-α-tocopherol were used after they were each dissolved in a suitable amount of ethyl ether, mixed with a solution containing 2% of Tween 80 and 2% of Span 40 and after removing ethyl ether, uniformly emulsified. 5-Butylpicolinic acid was used as a solution in 2% Tween 80+2% Span.
(§3) Spontaneous hypertensive rats (male, body weight 350 to 370 g) and Wistar rats with a normal blood pressure level (female, body weight 250 to270 g), three per group, were used. Without anesthesia, the pressure of the tail artery was measured by plethysmography.

Normotensive Wistar rats = assay: Hypotensive action in normotensive Wistar rats, oral (tail artery pressure, plethysmography; Table 2); format: in vivo, rat (Wistar, female)
Text: as §2, §3

[2] = tested on: Spontaneous hypertensive rats; assay: Maximum blood pressure lowering rate, oral (Table 4); format: in vivo; conditions: Rattus norvegicus, 0.01 mmol/kg oral
Text: (§4) The following Tables 4 and 5 summarize the maximum blood pressure lowering rates and the acute toxicity values (LD50 values) of other typical examples of the compound of formula (I).
In Table 4, 0.01 mmol/kg of each compound was orally administered to spontareous hypertensive rats.

[3] = Acute toxicity LD50, intraperitoneal (Table 5); conditions: mouse, in vivo, ip
Text: as §4
In Table 5, each compound was intraperitoneally administered to mice.

dopamine β-hydroxylase = biological target: T1, dopamine β-hydroxylase (Bos taurus, UniProt P15101); assay: 50% dopamine β-hydroxylase inhibitory concentration; format: biochemical
T1 sequence (P15101 1-610): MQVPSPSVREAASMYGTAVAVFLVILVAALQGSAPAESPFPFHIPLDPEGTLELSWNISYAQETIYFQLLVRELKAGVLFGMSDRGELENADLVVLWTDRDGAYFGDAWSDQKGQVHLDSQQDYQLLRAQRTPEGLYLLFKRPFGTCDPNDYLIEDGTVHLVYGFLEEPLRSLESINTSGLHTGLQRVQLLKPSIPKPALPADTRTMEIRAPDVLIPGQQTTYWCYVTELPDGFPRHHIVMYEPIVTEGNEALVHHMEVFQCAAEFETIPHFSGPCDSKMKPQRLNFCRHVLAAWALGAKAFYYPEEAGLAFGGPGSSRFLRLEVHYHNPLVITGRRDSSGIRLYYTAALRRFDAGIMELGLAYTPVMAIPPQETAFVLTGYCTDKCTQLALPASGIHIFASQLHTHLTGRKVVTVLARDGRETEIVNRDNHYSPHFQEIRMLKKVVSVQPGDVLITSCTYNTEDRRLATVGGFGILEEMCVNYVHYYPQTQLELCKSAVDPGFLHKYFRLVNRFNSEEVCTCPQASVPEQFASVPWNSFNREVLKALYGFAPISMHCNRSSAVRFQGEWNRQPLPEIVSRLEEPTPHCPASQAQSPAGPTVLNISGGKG

[4] = 9.375 mg/kg oral, spontaneous hypertensive rats
[5] = 37.5 mg/kg oral, spontaneous hypertensive rats
[6] = ester of formula (I), read-out: Maximum blood pressure lowering rate (%) of the compound of the invention
[7] = read-out: LD50 of the compound of the invention
[8] = corresponding acid, read-out: Maximum blood pressure lowering rate (%) of the 5-substituted picolinic acid
[9] = read-out: LD50 of the 5-substituted picolinic acid
[10] = intraperitoneal, mice, corresponding acid, read-out: LD50 of the 5-substituted picolinic acid

Row | Structure (SMILES) | inhibition in vivo at 10 µmol/kg [2, 6] | LD50 [3, 7] | inhibition in vivo at 10 µmol/kg [2, 8] | LD50 [3, 9] | also measured
1 | CCCCc1ccc(C(=O)Oc2c(C)c(C)c3c(c2C)CCC(C)(CCCC(C)CCCC(C)CCCC(C)C)O3)nc1 (racemic) [Example 1, dl-α-tocopheryl 5-butylpicolinate] | – | – | – | – | LD50 at 48 h (in vivo; ip, acute toxicity LD50, intraperitoneally administered, calculated for 5-butylpicolinic acid, intraperitoneal): > 1210 mg/kg; LD50 at 48 h (in vivo; ip, acute toxicity LD50, intraperitoneally administered, intraperitoneal, two days after administration): > 4000 mg/kg; LD50 at 48 h (in vivo; po, acute toxicity LD50, orally administered, calculated for 5-butylpicolinic acid): > 1210 mg/kg; LD50 at 48 h (in vivo; po, acute toxicity LD50, orally administered, oral, two days after administration): > 4000 mg/kg; deaths (ddY-Strain female mice): no case of death was noted; Blood pressure lowering rate, 1h [1, 4]: 20.3%; Blood pressure lowering rate, 2h [1, 4]: 3.2%; Blood pressure lowering rate, 3h [1, 4]: 0%; Blood pressure lowering rate, 4h [1, 4]: 0%; Blood pressure lowering rate, 1h [1, 5]: 29.0%; Blood pressure lowering rate, 2h [1, 5]: 18.3%; Blood pressure lowering rate, 3h [1, 5]: 13.0%; Blood pressure lowering rate, 4h [1, 5]: 0%; selectivity of hypotensive action for hypertension (in words) ([1]; conclusion from hypertensive vs normotensive rats): more selective for hypertension than 5-butylpicolinic acid; hypotensive action (in words) ([1]; spontaneous hypertensive rats, oral, vs 5-butylpicolinic acid or its mixture with dl-α-tocopherol): strong hypotensive action on spontaneous hypertensive rats substantially equivalent to 5-butylpicolinicacid or a mixture of it with dl-α-tocopherol; Blood pressure lowering rate, 1h (Normotensive Wistar rats; 150 mg/kg oral, 1h, normotensive Wistar rats): 2.4%; Blood pressure lowering rate, 2h (Normotensive Wistar rats; 150 mg/kg oral, 2h, normotensive Wistar rats): 18.3%; Blood pressure lowering rate, 3h (Normotensive Wistar rats; 150 mg/kg oral, 3h, normotensive Wistar rats): 8.7%; Blood pressure lowering rate, 4h (Normotensive Wistar rats; 150 mg/kg oral, 4h, normotensive Wistar rats): 0%; blood pressure lowering effect (in words) (Normotensive Wistar rats; normotensive rats, oral, vs 5-butylpicolinic acid): weaker both in strength and duration than that of 5-butylpicolinic acid
2 | Cc1c(C)c2c(c(C)c1OC(=O)c1ccc(CCC(Br)CBr)cn1)CCC(C)(CCCC(C)CCCC(C)CCCC(C)C)O2 (racemic) [Example 4, dl-α-tocopheryl 5-(3,4-dibromobutyl)picolinate] | 53% | > 4000 mg/kg | – | – | –
3 | Cc1c(C)c2c(c(C)c1OC(=O)c1ccc(CCC(Cl)CCl)cn1)CCC(C)(CCCC(C)CCCC(C)CCCC(C)C)O2 (racemic) [Example 5, dl-α-tocopheryl 5-(3,4-dichlorobutyl)picolinate] | 53% | > 4000 mg/kg | – | – | –
4 | Cc1c(C)c2c(c(C)c1OC(=O)c1ccc(CCCCBr)cn1)CCC(C)(CCCC(C)CCCC(C)CCCC(C)C)O2 (racemic) [Example 6, dl-α-tocopheryl 5-(4-bromobutyl)picolinate] | 48% | > 4000 mg/kg | – | – | –
5 | Cc1c(C)c2c(c(C)c1OC(=O)c1ccc(CCCCCl)cn1)CCC(C)(CCCC(C)CCCC(C)CCCC(C)C)O2 (racemic) [Example 7, dl-α-tocopheryl 5-(4-chlorobutyl)picolinate] | 50% | > 4000 mg/kg | – | – | –
6 | Cc1c(C)c2c(c(C)c1OC(=O)c1ccc(Cc3ccccc3)cn1)CCC(C)(CCCC(C)CCCC(C)CCCC(C)C)O2 (racemic) [Example 9, dl-α-tocopheryl 5-benzylpicolinate] | 41% | > 4000 mg/kg | – | – | –
7 | CCCCOc1ccc(C(=O)Oc2c(C)c(C)c3c(c2C)CCC(C)(CCCC(C)CCCC(C)CCCC(C)C)O3)nc1 (racemic) [Example 14, dl-α-tocopheryl 5-butyloxypicolinate] | 36% | > 4000 mg/kg | – | – | –
8 | Cc1c(C)c2c(c(C)c1OC(=O)c1ccc(OCCCCCl)cn1)CCC(C)(CCCC(C)CCCC(C)CCCC(C)C)O2 (racemic) [Example 16, dl-α-tocopheryl 5-(4-chlorobutyloxy)picolinate] | 40% | > 4000 mg/kg | – | – | –
9 | Cc1c(C)c2c(c(C)c1OC(=O)c1ccc(Oc3ccc(Cl)cc3)cn1)CCC(C)(CCCC(C)CCCC(C)CCCC(C)C)O2 (racemic) [Example 17, dl-α-tocopheryl 5-(4-chlorophenyloxy)picolinate] | 48% | > 4000 mg/kg | – | – | –
10 | CCCCSc1ccc(C(=O)Oc2c(C)c(C)c3c(c2C)CCC(C)(CCCC(C)CCCC(C)CCCC(C)C)O3)nc1 (racemic) [Example 18, dl-α-tocopheryl 5-butylthiopicolinate] | 39% | > 4000 mg/kg | – | – | –
11 | Cc1c(C)c2c(c(C)c1OC(=O)c1ccc(SCCCCl)cn1)CCC(C)(CCCC(C)CCCC(C)CCCC(C)C)O2 (racemic) [Example 23, dl-α-tocopheryl 5-(3-chloropropylthio)picolinate] | 43% | > 4000 mg/kg | – | – | –
12 | CCCSc1ccc(C(=O)Oc2c(C)c(C)c3c(c2C)CCC(C)(CCCC(C)CCCC(C)CCCC(C)C)O3)nc1 (racemic) [Example 25, dl-α-tocopheryl 5-propylthiopicolate] | 31% | > 4000 mg/kg | – | – | –
13 | O=C(O)c1ccc(SCCCCl)cn1 [3-Chloropropyl] | – | – | 48% | 179 mg/kg | IC50 (dopamine β-hydroxylase; Table 6): 550 nM
14 | O=C(O)c1ccc(CCC(Br)CBr)cn1 (stereo not drawn) [5-(3,4-dibromobutyl)picolinic acid, reference compound] | – | – | 50% | – | LD50 [3, 10]: 110 mg/kg
15 | C=CCSc1ccc(C(=O)O)nc1 [Allyl] | – | – | – | – | IC50 (dopamine β-hydroxylase; Table 6): 550 nM
16 | O=C(O)c1ccc(SCc2ccccc2)cn1 [Benzyl] | – | – | – | – | IC50 (dopamine β-hydroxylase; Table 6): 280 nM
17 | CSc1ccc(C(=O)O)nc1 [Methyl] | – | – | – | – | IC50 (dopamine β-hydroxylase; Table 6): 7500 nM
18 | CCCCSc1ccc(C(=O)O)nc1 [Referential Example 1, 5-n-butylthiopicolinic acid] | – | – | 36% | – | LD50 [3, 10]: 143 mg/kg; IC50 (dopamine β-hydroxylase; Referential Example 1): 510 nM
19 | CC(C)CCSc1ccc(C(=O)O)nc1 [i-Pentyl] | – | – | – | – | IC50 (dopamine β-hydroxylase; Table 6): 210 nM
20 | CCCCCCCCSc1ccc(C(=O)O)nc1 [n-Octyl] | – | – | – | – | IC50 (dopamine β-hydroxylase; Table 6): 23000 nM
21 | CCCSc1ccc(C(=O)O)nc1 [n-Propyl, propylthiopicolinic acid] | – | – | 33% | 167 mg/kg | IC50 (dopamine β-hydroxylase; Table 6): 700 nM
22 | O=C(O)c1ccc(CCCCBr)cn1 [reference compound] | – | – | 49% | 46 mg/kg | –
23 | CCCCOc1ccc(C(=O)O)nc1 [reference compound] | – | – | 31% | 134 mg/kg | –
24 | O=C(O)c1ccc(CCC(Cl)CCl)cn1 (stereo not drawn) [reference compound] | – | – | 53% | 41 mg/kg | –
25 | O=C(O)c1ccc(CCCCCl)cn1 [reference compound] | – | – | 46% | 44 mg/kg | –
26 | O=C(O)c1ccc(OCCCCCl)cn1 [reference compound] | – | – | 43% | 172 mg/kg | –
27 | O=C(O)c1ccc(Cc2ccccc2)cn1 [reference compound] | – | – | 39% | 135 mg/kg | –
28 | O=C(O)c1ccc(Oc2ccc(Cl)cc2)cn1 [reference compound] | – | – | 56% | 123 mg/kg | –
